Measurements from patent publication US20220002314A1 (priority 2018, published 2022).
Where two headings read alike, the source gives them in different places.

Legend:
[1] = biological target: Human μ-opioid receptor (Homo sapiens, UniProt P35372); experiment: biochemical; type: binding
[2] = biological target: Human α2δ-1 subunit of Cav2.2 calcium channel (Homo sapiens, UniProt P54289); experiment: biochemical; type: binding
Human α2δ-1 subunit of Cav2.2 calcium channel, sequence (P54289 25-1103): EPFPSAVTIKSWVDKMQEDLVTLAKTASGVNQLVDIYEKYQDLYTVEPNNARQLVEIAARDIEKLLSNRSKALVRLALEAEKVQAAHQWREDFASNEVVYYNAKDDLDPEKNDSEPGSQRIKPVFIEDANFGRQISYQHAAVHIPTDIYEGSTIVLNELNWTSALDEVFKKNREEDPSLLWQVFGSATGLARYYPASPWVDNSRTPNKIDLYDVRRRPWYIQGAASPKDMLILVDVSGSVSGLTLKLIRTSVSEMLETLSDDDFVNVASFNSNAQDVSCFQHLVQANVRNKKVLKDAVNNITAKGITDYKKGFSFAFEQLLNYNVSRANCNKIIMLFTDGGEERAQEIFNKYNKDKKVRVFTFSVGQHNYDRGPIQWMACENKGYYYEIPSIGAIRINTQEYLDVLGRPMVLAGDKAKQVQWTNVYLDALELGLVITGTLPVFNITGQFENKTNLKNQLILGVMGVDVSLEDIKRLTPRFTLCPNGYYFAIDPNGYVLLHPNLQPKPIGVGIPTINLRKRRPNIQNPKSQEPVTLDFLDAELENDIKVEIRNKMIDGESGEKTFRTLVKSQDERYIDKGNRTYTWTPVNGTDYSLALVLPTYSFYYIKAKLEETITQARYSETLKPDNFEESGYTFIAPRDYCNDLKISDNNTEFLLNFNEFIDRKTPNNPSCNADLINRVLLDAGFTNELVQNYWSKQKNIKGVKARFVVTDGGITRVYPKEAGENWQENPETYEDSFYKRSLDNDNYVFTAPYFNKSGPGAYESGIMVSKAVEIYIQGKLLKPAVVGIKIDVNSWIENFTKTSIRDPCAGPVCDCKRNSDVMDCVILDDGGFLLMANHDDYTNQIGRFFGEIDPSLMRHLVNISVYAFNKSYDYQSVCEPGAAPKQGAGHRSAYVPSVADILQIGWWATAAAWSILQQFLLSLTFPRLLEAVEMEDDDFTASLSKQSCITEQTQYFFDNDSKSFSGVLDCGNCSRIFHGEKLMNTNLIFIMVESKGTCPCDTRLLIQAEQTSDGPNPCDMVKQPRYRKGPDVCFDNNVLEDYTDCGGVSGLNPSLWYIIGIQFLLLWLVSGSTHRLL

Human μ-opioid receptor, sequence (P35372 whole entry): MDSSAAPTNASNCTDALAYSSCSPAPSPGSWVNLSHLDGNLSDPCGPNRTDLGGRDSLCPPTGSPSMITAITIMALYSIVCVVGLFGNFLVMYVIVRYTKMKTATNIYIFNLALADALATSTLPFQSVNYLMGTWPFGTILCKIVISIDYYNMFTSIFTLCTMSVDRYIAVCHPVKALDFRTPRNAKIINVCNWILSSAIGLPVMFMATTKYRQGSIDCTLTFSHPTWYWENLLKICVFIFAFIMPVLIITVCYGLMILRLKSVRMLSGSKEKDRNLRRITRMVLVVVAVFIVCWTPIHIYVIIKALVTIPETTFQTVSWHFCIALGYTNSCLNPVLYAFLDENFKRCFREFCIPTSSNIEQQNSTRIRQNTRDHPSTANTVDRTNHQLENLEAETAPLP

Ki ([1]; read-out: μ-binding) [nM]	Ki ([2]; read-out: α2δ-1 binding) [nM]	SMILES	Ki [1] [nM]	Ki [2] [nM]
		CCC[C@H](c1nc2c(F)cc(OC)cc2c(=O)n1CC)N1CCNCC1 [Example 38, (R)-3-ethyl-8-fluoro-6-methoxy-2-(1-(piperazin-1-yl)butyl)quinazolin-4(3H)-one]	100 to 500	< 500
> 500	> 5000	CCC[C@@H](c1nc2c(F)cc(OC)c(Br)c2c(=O)n1CC)N1CCNCC1 [Example 39, (S)-5-Bromo-3-ethyl-8-fluoro-6-methoxy-2-(1-(piperazin-1-yl)butyl)quinazolin-4(3H)-one]		
> 500	500 to 5000	CCC[C@H](c1nc2c(F)cc(OC)c(Br)c2c(=O)n1CC)N1CCNCC1 [Example 40, (R)-5-bromo-3-ethyl-8-fluoro-6-methoxy-2-(1-(piperazin-1-yl)butyl)quinazolin-4(3H)-one]		
		CCC[C@H](c1nc2ccc(Br)cc2c(=O)n1C)N1CCN[C@@H](C)C1 [Example 41, 6-Bromo-3-methyl-2-((R)-1-((S)-3-methylpiperazin-1-yl)butyl)quinazolin-4(3H)-one]	100 to 500	< 500
		CCC[C@@H](c1nc2ccc(Br)cc2c(=O)n1C)N1CCN[C@@H](C)C1 [Example 42, 6-bromo-3-methyl-2-((S)-1-((S)-3-methylpiperazin-1-yl)butyl)quinazolin-4(3H)-one]	> 500	> 5000
		CCC[C@H](c1nc2ccccc2c(=O)n1CC)N1CCN[C@@H](C)C1 [Example 43, 3-Ethyl-2-((R)-1-((S)-3-methylpiperazin-1-yl)butyl)quinazolin-4(3H)-one]	> 500	< 500
		CCC[C@@H](c1nc2ccccc2c(=O)n1CC)N1CCN[C@@H](C)C1 [Example 44, 3-ethyl-2-((S)-1-((S)-3-methylpiperazin-1-yl)butyl)quinazolin-4(3H)-one]	> 500	> 5000
		CCC[C@@H](c1nc2c(F)cc(OC)cc2c(=O)n1CC)N1CCN[C@@H](C)C1 [Example 45, 3-Ethyl-8-fluoro-6-methoxy-2-((S)-1-((S)-3-methylpiperazin-1-yl)butyl)quinazolin-4(3H)-one]	> 500	> 5000
		CCC[C@H](c1nc2c(F)cc(OC)cc2c(=O)n1CC)N1CCN[C@@H](C)C1 [Example 46, 3-ethyl-8-fluoro-6-methoxy-2-((R)-1-((S)-3-methylpiperazin-1-yl)butyl)quinazolin-4(3H)-one]	100 to 500	< 500
		CCC[C@H](c1nc2c(F)cc(Br)cc2c(=O)n1CC)N1CCN[C@H](C)C1 [Example 47, 6-Bromo-3-ethyl-8-fluoro-2-((R)-1-((R)-3-methylpiperazin-1-yl)butyl)quinazolin-4(3H)-one]	> 500	< 500
		CCC[C@@H](c1nc2c(F)cc(Br)cc2c(=O)n1CC)N1CCN[C@H](C)C1 [Example 48, 6-bromo-3-ethyl-8-fluoro-2-((S)-1-((R)-3-methylpiperazin-1-yl)butyl)quinazolin-4(3H)-one]	> 500	> 5000
		CCC[C@H](c1nc2cc(Cl)c(Cl)cc2c(=O)n1CC)N1CCN[C@@H](C)C1 [Example 49, 6,7-Dichloro-3-ethyl-2-((R)-1-((S)-3-methylpiperazin-1-yl)butyl)quinazolin-4(3H)-one]	100 to 500	< 500
		CCC[C@@H](c1nc2cc(Cl)c(Cl)cc2c(=O)n1CC)N1CCN[C@@H](C)C1 [Example 50, 6,7-dichloro-3-ethyl-2-((S)-1-((S)-3-methylpiperazin-1-yl)butyl)quinazolin-4(3H)-one]	> 500	> 5000
		CCC[C@H](c1nc2c(F)cc(Br)cc2c(=O)n1CC)N1CCN[C@@H](C)C1 [Example 51, 6-Bromo-3-ethyl-8-fluoro-2-((R)-1-((S)-3-methylpiperazin-1-yl)butyl)quinazolin-4(3H)-one]	100 to 500	< 500
		CCC[C@@H](c1nc2c(F)cc(Br)cc2c(=O)n1CC)N1CCN[C@@H](C)C1 [Example 52, 6-bromo-3-ethyl-8-fluoro-2-((S)-1-((S)-3-methylpiperazin-1-yl)butyl)quinazolin-4(3H)-one]	> 500	> 5000
		CCC[C@H](c1nc2cc(F)c(Cl)cc2c(=O)n1CC)N1CCN[C@@H](C)C1 [Example 53, 6-Chloro-3-ethyl-7-fluoro-2-((R)-1-((S)-3-methylpiperazin-1-yl)butyl)quinazolin-4(3H)-one]	100 to 500	< 500
		CCC[C@@H](c1nc2cc(F)c(Cl)cc2c(=O)n1CC)N1CCN[C@@H](C)C1 [Example 54, 6-chloro-3-ethyl-7-fluoro-2-((S)-1-((S)-3-methylpiperazin-1-yl)butyl)quinazolin-4(3H)-one]	> 500	> 5000
		CCC[C@H](c1nc2ccc(Br)cc2c(=O)n1CC)N1CCN[C@H](CF)C1 [Example 55, 6-Bromo-3-ethyl-2-((R)-1-((S)-3-(fluoromethyl)piperazin-1-yl)butyl)quinazolin-4(3H)-one]	> 500	< 500

Ki ([1]; read-out: μ-binding) [nM]	Ki ([2]; read-out: α2δ-1 binding) [nM]	SMILES	Ki [1] [nM]	Ki [2] [nM]
		CCC[C@@H](c1nc2ccc(Br)cc2c(=O)n1CC)N1CCN[C@@H](CF)C1 [Example 56, 6-bromo-3-ethyl-2-((S)-1-((R)-3-(fluoromethyl)piperazin-1-yl)butyl)quinazolin-4(3H)-one]	> 500	> 5000
		CCC[C@@H](c1nc2ccc(Br)cc2c(=O)n1CC)N1CCN[C@H](CF)C1 [Example 57, 6-bromo-3-ethyl-2-((S)-1-((S)-3-(fluoromethyl)piperazin-1-yl)butyl)quinazolin-4(3H)-one]	> 500	< 500
		CCC[C@H](c1nc2ccc(Br)cc2c(=O)n1CC)N1CCN[C@H](CO)C1 [Example 58, 6-Bromo-3-ethyl-2-((R)-1-((S)-3-(hydroxymethyl)piperazin-1-yl)butyl)quinazolin-4(3H)-one]	> 500	< 500
		CCC[C@@H](c1nc2ccc(Br)cc2c(=O)n1CC)N1CCN[C@H](CO)C1 [Example 59, 6-bromo-3-ethyl-2-((S)-1-((S)-3-(hydroxymethyl)piperazin-1-yl)butyl)quinazolin-4(3H)-one]	> 500	> 5000
		CCC[C@H](c1nc2ccc(Br)cc2c(=O)n1CC)N1CCN[C@@H](CO)C1 [Example 60, 6-bromo-3-ethyl-2-((R)-1-((R)-3-(hydroxymethyl)piperazin-1-yl)butyl)quinazolin-4(3H)-one]	> 500	< 500
		CCC[C@@H](c1nc2ccc(Br)cc2c(=O)n1CC)N1CCN[C@@H](CO)C1 [Example 61, 6-bromo-3-ethyl-2-((S)-1-((R)-3-(hydroxymethyl)piperazin-1-yl)butyl)quinazolin-4(3H)-one]	> 500	> 5000
		CCC[C@H](c1nc2cc(F)c(Br)cc2c(=O)n1C)N1CCN[C@@H](C)C1 [Example 62, 6-Bromo-7-fluoro-3-methyl-2-((R)-1-((S)-3-methylpiperazin-1-yl)butyl)quinazolin-4(3H)-one]	100 to 500	< 500
		CCC[C@@H](c1nc2cc(F)c(Br)cc2c(=O)n1C)N1CCN[C@@H](C)C1 [Example 63, 6-bromo-7-fluoro-3-methyl-2-((S)-1-((S)-3-methylpiperazin-1-yl)butyl)quinazolin-4(3H)-one]	> 500	> 5000
		CCC[C@H](c1nc2ccncc2c(=O)n1CC)N1CCN[C@H](C)C1 [Example 64, 3-Ethyl-2-((R)-1-((R)-3-methylpiperazin-1-yl)butyl)pyrido[4,3-d]pyrimidin-4(3H)-one]	> 500	< 500
		CCC[C@@H](c1nc2ccncc2c(=O)n1CC)N1CCN[C@H](C)C1 [Example 65, 3-ethyl-2-((S)-1-((R)-3-methylpiperazin-1-yl)butyl)pyrido[4,3-d]pyrimidin-4(3H)-one]	> 500	> 5000
		CCC[C@H](c1nc2ccncc2c(=O)n1CC)N1CCN[C@@H](C)C1 [Example 66, 3-Ethyl-2-((R)-1-((S)-3-methylpiperazin-1-yl)butyl)pyrido[4,3-d]pyrimidin-4(3H)-one]	> 500	< 500
		CCC[C@@H](c1nc2ccncc2c(=O)n1CC)N1CCN[C@@H](C)C1 [Example 67, 3-ethyl-2-((S)-1-((S)-3-methylpiperazin-1-yl)butyl)pyrido[4,3-d]pyrimidin-4(3H)-one]	> 500	> 5000
		CCC[C@H](c1nc2ncc(Br)cc2c(=O)n1CC)N1CCN[C@@H](C)C1 [Example 68, 6-Bromo-3-ethyl-2-((R)-1-((S)-3-methylpiperazin-1-yl)butyl)pyrido[2,3-d]pyrimidin-4(3H)-one]	> 500	< 500
		CCC[C@@H](c1nc2ncc(Br)cc2c(=O)n1CC)N1CCN[C@@H](C)C1 [Example 69, 6-bromo-3-ethyl-2-((S)-1-((S)-3-methylpiperazin-1-yl)butyl)pyrido[2,3-d]pyrimidin-4(3H)-one]	> 500	> 5000
		CCC[C@H](c1nc2cccnc2c(=O)n1CC)N1CCN[C@@H](C)C1 [Example 70, 3-Ethyl-2-((R)-1-((S)-3-methylpiperazin-1-yl)butyl)pyrido[3,2-d]pyrimidin-4(3H)-one]	> 500	< 500
		CCC[C@@H](c1nc2cccnc2c(=O)n1CC)N1CCN[C@@H](C)C1 [Example 71, 3-ethyl-2-((S)-1-((S)-3-methylpiperazin-1-yl)butyl)pyrido[3,2-d]pyrimidin-4(3H)-one]	> 500	> 5000
		CCC[C@H](c1nc2ncc(Br)cc2c(=O)n1CCC)N1CCN[C@@H](C)C1 [Example 72, 6-Bromo-2-((R)-1-((S)-3-methylpiperazin-1-yl)butyl)-3-propylpyrido[2,3-d]pyrimidin-4(3H)-one]	> 500	< 500
		CCC[C@@H](c1nc2ncc(Br)cc2c(=O)n1CCC)N1CCN[C@@H](C)C1 [Example 73, 6-bromo-2-((S)-1-((S)-3-methylpiperazin-1-yl)butyl)-3-propylpyrido[2,3-d]pyrimidin-4(3H)-one]	> 500	> 5000
